Patent publication US20100143456A1, “MODEL MEMBRANE SYSTEMS” (priority 1999, published 2010)

Tested on: P815 cells
Test: FACS analysis of hexa-histidine-tagged B7.1 and CD40 engrafted onto P815 cells via incorporated lipid
Type: cell-based, murine
Settings: 0.1 mM lipid 30 min 37° C., then 6His B7.1 and CD40 each ~20 μg/ml, streptavidin-FITC
Description: FIG. 2 is the fluorescence profile, as measured by fluorescence-activated cell sorting, of p815 cells engrafted with biotinylated and hexa-histidine-tagged CD40 and B7.1 molecules and then stained with streptavidin-FITC.
Cultured P815 tumor cells were washed twice in PBS to remove proteins from the culture media and suspended to 1×10^7 cells/ml in PBS. The cells were then aliquoted into 96-well V-bottom Seroeluster plates (Costar, Corning, N.Y.) at […] and incubated with 125 μM NTA-DTDA (alone or as a mixture with other lipids as indicated) or 125 μM DMPC (control) in PBS containing 125 μM Zn^2+, for 40 min at 37° C. […] The relative level of NTA-DTDA incorporated was routinely assessed by FACS analysis (see below) after incubating the cells with biotinylated 6His peptide (B-6His) (0.2 μg/ml) for 30 min at 4° C., washing twice with PBS-0.1% v/v BSA, and then staining with streptavidin-FITC. The cells were incubated with streptavidin-FITC (33 μg/ml) in PBS containing 1% v/v BSA (PBS-1% v/v-BSA) for 30 min at 4° C., washed three times with PBS-1% v/v BSA, fixed with 2% v/v paraformaldehyde in PBS, and then analyzed for FITC-fluorescence by FACS. […]
The histograms in FIG. 2 show fluorescence-activated cell sorting (FACS) profiles of murine mastocytoma P815 cells carrying engrafted recombinant hexa-histidine-tagged murine B7.1 and CD40. […]

CCCCCCCCCCCCCC(=O)OC[C@H](COP(=O)([O-])OCC[N+](C)(C)C)OC(=O)CCCCCCCCCCCCC [DMPC, di-myristoyl-phosphatidylcholine]
level of fluorescence after staining with either monoclonal antibody (biotinylated mAb): low level of fluorescence

CCCCCCCCCCCCCCN(CCCCCCCCCCCCCC)C(=O)CCC(=O)NCCCC[C@@H](C(=O)O)N(CC(=O)O)CC(=O)O [NTA-DTDA, N^α,N^αbis[carboxymethyl]-N^ε[(DTDA)suc]-L lysine]
fluorescence of P815 cells relative to cells pre-incubated with DMPC (Control) (biotinylated anti-B7.1 or anti-CD40 mAb): 10-100 fold
